We go through 8 compounds from patent publication US9572802B2 (Theravance Respiratory Company, LLC, priority 2009, dated 2017).

SMILES strings stand for the structures. Where a name gives a salt, the structure may show the parent alone.

The subject of this assay is methacholine (MCh)-induced bronchoconstriction. Nature of the assay: Rat Einthoven assay: bronchoprotection against methacholine (MCh)-induced bronchoconstriction. To be noted: 100 μg by inhalation, bronchoprotective effect present. It is filed as in vivo. The protocol:
This assay measures the ability of a test compound to provide bronchoprotection against methacholine (MCh)-induced bronchoconstriction in a rat. Male Sprague-Dawley rats (Harlan, Indianapolis, Ind.), weighing between 200 g and 350 g, were used for all studies. Test compound or vehicle (sterile deionized water) were dosed by inhalation (1H) over a 10 min period in a pie shaped inhalation chamber (R+S Molds, San Carlos, Calif.) using 5 mL of dosing solution. […] Rats were dosed with 100 μg of test compound unless otherwise indicated. At predetermined time points, rats were anesthetized with all intraperitoneal (IP) injection of 120 mg/kg inactin (thiobutabarbital). A supplemental dose (40 mg/kg, IP) was administered if the animal responded to physical stimuli (e.g. toe pinch). The surgical site was shaved and a 1-2 cm midline incision of the ventral aspect of the neck was made. The jugular vein was isolated and cannulated with a saline-filled polyethylene catheter (PE-50) to allow IV infusion of MCh. Trachea was dissected free and cannulated with a 14G needle (#NE-014, Small Parts, Miami Lakes, Fla.). After placement of the tracheal cannula, each rat was ventilated using a respirator (Model 683, Harvard Apparatus, Inc., Mass.) set at a stroke volume of 1 mL/100 g body weight (but not exceeding 2.5 mL volume) and a rate of 90 strokes per minute. A T-connector was placed along the respirator expiratory tubing to allow for measurement of changes in ventilation pressure (VP) using a Biopac transducer that was connected to a Biopac […]) pre-amplifier. Body temperature was maintained at 37° C. using a heating pad. Changes in VP were recorded using the Acknowledge Data Collection Software (Santa Barbara, Calif.). Baseline values were collected for at least 2.5 min. Rats were then challenged with non-cumulative intravenous (IV) infusions of 40 and 80 μg/kg MCh. MCh was infused intravenously for 2.5 minutes from a syringe pump (sp210iw, World Precision Instruments, Inc., Sarasota, Fla.) at a rate of 2 mL/kg/min, with a 2 minute interval between the two doses of MCh. Changes in ventilation pressure (cm H2O) in treated animals are expressed as % inhibition of MCh response relative to control animals. Other bronchoconstrictors, such as histamine and acetylcholine, can be used in place of MCh in this assay. Additonally, guinea pigs can be used instead of rats. […] Inhibition greater than or equal to 30 percent at 24 h is indicative of a long duration of action.

In the case of `CN(C(=O)CCN1CCC(OC(=O)Nc2ccccc2-c2ccccc2)CC1)c1cccc(C(=O)Nc2ccc(CNC[C@H](O)c3ccc(O)c4[nH]c(=O)ccc34)cc2)c1` [Compound I-25], for the setting “inhaled or nasal, 24 h, read-out: Broncho. at 24 h”, the inhibition in vivo at 0.1 mg is more than 30%.

Consider `Cc1ccc(C(=O)Nc2ccc(CC(C)NC[C@H](O)c3ccc(O)c4[nH]c(=O)ccc34)cc2)cc1N(C)C(=O)CCN1CCC(OC(=O)Nc2ccccc2-c2ccccc2)CC1` (stereo partly drawn) [Compound I-41, Biphenyl-2-ylcarbamic acid 1-(2-{[5-(4-{2-[(R)-2-hydroxy-2-(8-hydroxy-2-oxo-1,2-dihydroquinolin-5-yl)-ethylamino]propyl}phenylcarbamoyl)-2-methylphenyl]-methylcarbamoyl}ethyl)piperidin-4-yl ester], for which the “Broncho. at 24 h” value is recorded as “No”. The same measure, in the same setting: the value for `C[C@H](Cc1cccc(CC(=O)NCCCN(C)C(=O)CCN2CCC(OC(=O)Nc3ccccc3-c3ccccc3)CC2)c1)NC[C@H](O)c1ccc(O)c2[nH]c(=O)ccc12` [Compound I-12, Biphenyl-2-ylcarbamic acid 1-[2-({3-[2-(3-{(R)-2-[(R)-2-hydroxy-2-(8-hydroxy-2-oxo-1,2-dihydroquinolin-5-yl)ethylamino]propyl}phenyl)acetylamino]propyl}methylcarbamoyl)ethyl]piperidin-4-yl ester ditrifluoroacetic acid salt] was “No”; that for `CN(CCCC(=O)Nc1cccc(CCNC[C@H](O)c2ccc(O)c3[nH]c(=O)ccc23)c1)C(=O)CCN1CCC(OC(=O)Nc2ccccc2-c2ccccc2)CC1` [Compound I-7, Biphenyl-2-ylcarbamic Acid 1-(2-{[3-(3{2-[(R)-2-Hydroxy-2-(8-hydroxy-2-oxy-1,2-dihydroquinolin-5-yl)ethylamino]ethyl}phenylcarbamoyl)-propyl]methylcarbamoyl}ethyl)piperidin-4-yl Ester Ditrifluoroacetic Acid Salt] was “Yes (Bronchoprotective effect present at 24 h, e.g., ≧30% inhibition of the MCh response at 24 h in the rat Einthoven assay (100 μg))”; that for `CN(C(=O)CCN1CCC(OC(=O)Nc2ccccc2-c2ccccc2)CC1)c1cccc(CC(=O)Nc2cccc(CCNC[C@H](O)c3ccc(O)c4[nH]c(=O)ccc34)c2)c1` [Compound I-62, ditrifluoroacetic acid salt] was “Yes (Bronchoprotective effect present at 24 h, e.g., ≧30% inhibition of the MCh response at 24 h in the rat Einthoven assay (100 μg))”. With `CC(Cc1cccc(CC(=O)NCCCCN(C)C(=O)CCN2CCC(OC(=O)Nc3ccccc3-c3ccccc3)CC2)c1)NC[C@H](O)c1ccc(O)c2[nH]c(=O)ccc12` (stereo in doubt) [Compound I-23, Biphenyl-2-ylcarbamic acid 1-[2-({4-[2-(3-{(R)-2-[(R)-2-hydroxy-2-(8-hydroxy-2-oxo-1,2-dihydroquinolin-5-yl)ethylamino]propyl}phenyl)acetylamino]butyl}methylcarbamoyl)ethyl]piperidin-4-yl ester ditrifluoroacetic acid salt], the “Broncho. at 24 h” value is on record as “Yes (Bronchoprotective effect present at 24 h, e.g., ≧30% inhibition of the MCh response at 24 h in the rat Einthoven assay (100 μg))”. Regarding `C[C@@H](Cc1cccc(CC(=O)NCCCN(C)C(=O)CCN2CCC(OC(=O)Nc3ccccc3-c3ccccc3)CC2)c1)NC[C@H](O)c1ccc(O)c2[nH]c(=O)ccc12` [Compound I-13, Biphenyl-2-ylcarbamic Acid 1[2-({3-[2-(3-{(S)-2-[(R)-2-Hydroxy-2-(8-hydroxy-2-oxo-1,2-dihydroquinolin-5-yl)ethylamino]propyl}phenyl)acetylaminol]-propyl}methylcarbamoyl)ethyl]piperidin-4-yl Ester Ditrifluoroacetic Acid Salt], the “Broncho. at 24 h” value is “Yes (Bronchoprotective effect present at 24 h, e.g., ≧30% inhibition of the MCh response at 24 h in the rat Einthoven assay (100 μg))”. Still for that read-out and setting: for `Cc1cc(CNC[C@H](O)c2ccc(O)c3[nH]c(=O)ccc23)ccc1NC(=O)CCCN(C)C(=O)CCN1CCC(OC(=O)Nc2ccccc2-c2ccccc2)CC1` [Compound I-2, Biphenyl-2-ylcarbamic acid 1-(2-{[3-(4-{[(R)-2-hydroxy-2-(8-hydroxy-2-oxo-1,2-dihydroquinolin-5-yl)ethylamino]methyl}-2-methylphenylcarbamoyl)propyl]methylcarbamoyl}ethyl)piperidin-4-yl ester ditrifluoroacetic acid salt] the value was “No”.
